Results reported in US10390536B2, “Methods, compounds and compositions for repelling insects and/or arachnids” (National Center for Scientific Research “Demokritos”, priority 2013, dated 2019).

Tests used:
[1] = system: sand fly Lutzomyia longipalpis; test: warm body repellence assay with sand flies; type: in vivo; settings: for Median of landings: 2 minutes, control 48
Protocol: To test the effects of repellent compounds or compositions disclosed herein on other blood-feeding arthropods, a warm body repellence assay (Krober et. al. (2010). An In Vitro Assay for Testing Mosquito Repellents Employing a Warm Body and Carbon Dioxide as a Behavioral Activator. Journal of the American Mosquito Control Association 26(4): 381-386] was conducted using the sand fly Lutzomyia longipalpis (Diptera: Psychodidae), the principal vector of Leishmania (or leismaniasis) in the Americas.
[…] Fifty L. longipalpis sandflies (male:female ratio 1:1) of 3-7 days old were tested during the scotophase under conditions described for A. gambiae in Example 6. The test cages were lined with filter paper. Reduction in the number of landings by L. longipalpis sand fly females on a warm body treated with different test products compared to the control with solvent (ethanol p.a.) alone was used to evaluate repellence. Tests were conducted in complete darkness using IR LEDs to illuminate the warm body. Landings counted during 2 minutes were normalized by experimental day, cage, and number of females by a mixed linear model before testing for differences.

[2] = system: Ixodes ricinus (Ixodidae) nymphs; test: tick repellence assay on warm glass plate; type: in vivo; settings: 10 μg/cm^2; nymphs dropped off or walked down the warm glass plate; control 8
Protocol: The products were tested at a dose of 10 μg/cm^2 on Ixodes ricinus (Ixodidae) nymphs according the protocol described in Krober, T. et al. (2013). A standardised in vivo and in vitro test method for evaluating tick repellents. Pesticide Biochemistry and Physiology 107: 160-168] with the following modifications: The test products (dissolved in ethanol) were allowed to evaporate for 40 s (as in the warm body test with mosquitoes) and the warm glass plates were used up to 250 s after application of the test products for the repellence assay. Four repetitions were made with carvacrol with 3, 4, 4 and 5 nymphs, i.e. with a total of 16 I. ricinus nymphs, of which in total 75% (12) were affected in that they either dropped off or walked down the warm glass plate.
The mixture of carvacrol+cumin alcohol+butyl-cinnamate was tested in two repetitions with 6 and 7 nymphs, i.e. with a total of 13 I. ricinus nymphs, of which 100% were affected in that they either dropped off or walked down the warm glass plate. Of 12 Ixodes ricinus tested in the control (ethanol only) only one tick (8%) was affected (Table 8).

A. gambiae females = test: wind tunnel spatial repellence (landings on treated netting downwind of dirty sock); type: in vivo, Anopheles gambiae; settings: for inhibition of landing on treated netting (in words): 38 or 57 μg DEET/cm^2, 38 or 76 μg carvacrol/cm^2; for Mean Landings/5 minutes: control 24.6
Protocol: Carvacrol was tested in a wind tunnel (60×60×120 cm) in order to test for inhibition of the attractiveness of dirty socks, which are otherwise very attractive to the malaria mosquito A. gambiae. Experiments were conducted at 25° C. and 80% relative humidity at a wind speed of 0.5 m·s^−1 during the last 6 hours of scotophase. Dim fluorescent light (4 Lux) was provided from above (Philips TLD, 32 Watts at 36 KHz). A tube (55 mm inner diameter) was covered at its downwind end with mosquito netting which was treated with 38 or 57 μg DEET/cm^2 or 38 or 76 μg carvacrol/cm^2 or the solvent (ethanol) alone (control). Groups of 30 A. gambiae females were released from a release cage at the downwind end of the wind tunnel and their landing behaviour on the mosquito netting was recorded with a high definition video camera. The number of mosquitoes landing on the mosquito netting over 5 minutes was counted.

[3] = system: female A. gambiae antennae; test: GC-coupled electroantennogram (GC-EAG) recording; set-up: species or system Anopheles gambiae; settings: compounds eluting from GC of essential oils
Description: Electrophysiological recordings from whole mosquito antenna: Coupling EAG recordings from an A. gambiae antenna to the effluent of a high-resolution gas chromatographic (GC) column permitted the determination of the elution profiles of biologically active components of essential oils showing repellence. Recordings were made from to 4-9 day-old female mosquitoes. The head was excised at the occipital opening and placed on the reference glass electrode containing Hayes mosquito Ringer [Hayes (1953). Determination of a physiological saline for Aedes aegypti (L.). J Econ Entomol 46: 624-627] mounted in a humidified air-stream (90-98% RH; Guerin and Visser (1980). Electroantennogram Responses of the Carrot Fly, Psila rosae, to Volatile Plant Components. Physiological Entomology 5(2): 111-119] and its antenna exposed to compounds eluting from the GC column (Biessamann et al. (2010). The Anopheles gambiae odorant binding protein 1 (AgamOBP1) mediates indole recognition in the antennae of female mosquitoes. PLoS One 5(3): e9471]. The EAG response was recorded via a glass electrode filled with Kaissling sensillum lymph Ringer [Kaissling (1995). Single unit and electroantennogram recordings in insect olfactory organs. In Experimental Cell Biology of Taste and Olfaction. Current Techniques and Protocols, Spielman AlaB, J. G. (ed), 361-386. Boca Raton, Fla.: CRC Press] brought into contact with the terminal antennal segment whose tip was cut off. Only antennae showing an EAG response at least double the noise level to a 1 ml puff of air over 1 μg geranylacetone in a 5 ml stimulus syringe were used for recording EAG responses to the essential oils.
To conduct a GC-EAG analysis, about 2 μg of an essential oil was injected in 1-3 μL of dichloromethane (DCM) onto an apolar capillary column (95% dimethyl polysiloxan with 5% diphenyl polysiloxan, 15 m long, 0.25 mm i.d., 0.10 μm film thickness; BGB Analytik, Switzerland) installed in a 5300 Carlo Erba Instruments chromatograph. Hydrogen was used as carrier gas with the oven held at 40° C. for 3 minutes then heated up 25° C./min to 230° C. and held at the final temperature for 15 min. The column effluent was split (50:50) between the flame ionization detector (FID) of the chromatograph and the mosquito antennal preparation. The EAG signal was fed into an AC/DC amplifier (×100) via a high impedance preamplifier (×10), recorded on the hard disk of a PC via a 16-bit analogue-digital IDAC4 interface (Syntech, Netherlands) and monitored simultaneously with an oscilloscope (Tektronix 5103, USA). Kovats retention indices (KIs) were calculated for the EAG-active compounds present in the extracts and fractions. FIG. 1 illustrates the results obtained using the GC-EAG analysis. […]

[4] = netting treated with 38 μg/cm^2

| Compound | Median of landings ([1]; 20 nmol/cm^2) | Median of landings ([1]; 200 nmol/cm^2) | repellence of sand flies from the warm body (in words) ([1]; 20 and 200 nmol/cm^2) | % affected ticks [2] [%] | inhibition of landing on treated netting (in words) (A. gambiae females) | Mean Landings/5 minutes (A. gambiae females; [4]) [Landings/5 minutes] | Mean Landings/5 minutes (A. gambiae females; netting treated with 76 μg/cm^2 (500 nmol/cm^2)) [Landings/5 minutes] | EAG response of antenna [3] | Mean Landings/5 minutes (A. gambiae females; netting treated with 57 μg/cm^2 (300 nmol/cm^2)) [Landings/5 minutes] |
| --- | --- | --- | --- | --- | --- | --- | --- | --- | --- |
| Cc1ccc(C(C)C)cc1O [carvacrol, 5-isopropyl-2-methylphenol] | 23 | 1 | as effective as DEET at 20 nmol/cm^2 | 75 | clearly inhibited | 0 | 0 | capable of triggering EAG responses |  |
| CC(C)c1ccc(CO)cc1 [cumin alcohol] |  |  |  |  |  |  |  | capable of triggering EAG responses |  |
| CCN(CC)C(=O)c1cccc(C)c1 [DEET, N,N-diethyl-3-methylbenzamide, reference compound] | 6 | 5 |  |  | clearly inhibited | 0 |  |  | 0 |
